According to PubChem BioAssay (NCI):
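Results reflect a 48-hour exposure of cells in 96-well plates to compound at five concentrations. TGI: total growth inhibition.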

Tests used:
Experiment in all cases: DTP human tumour cell line panel, 48 h
BT-549 breast = test system: BT-549 breast
SNB-75 CNS = test system: SNB-75 CNS
T-47D breast = test system: T-47D breast
OVCAR-3 ovarian = test system: OVCAR-3 ovarian
786-0 renal = test system: 786-0 renal
SK-MEL-5 melanoma = test system: SK-MEL-5 melanoma
SF-295 CNS = test system: SF-295 CNS
MDA-MB-231 breast = test system: MDA-MB-231 breast
MDA-MB-435 = test system: MDA-MB-435
K-562 leukemia = test system: K-562 leukemia
A549 NSCLC = test system: A549 NSCLC
NCI/ADR-RES ovarian = test system: NCI/ADR-RES ovarian
CAKI-1 renal = test system: CAKI-1 renal
SK-MEL-2 melanoma = test system: SK-MEL-2 melanoma
HCC-2998 colon = test system: HCC-2998 colon
HCT-116 colon = test system: HCT-116 colon
NCI-H460 lung = test system: NCI-H460 lung
IGROV1 ovarian = test system: IGROV1 ovarian
KM12 colon = test system: KM12 colon
TK-10 renal = test system: TK-10 renal
M14 melanoma = test system: M14 melanoma
PC-3 prostate = test system: PC-3 prostate
HT29 colon = test system: HT29 colon
EKVX NSCLC = test system: EKVX NSCLC
U251 CNS = test system: U251 CNS
MOLT-4 leukemia = test system: MOLT-4 leukemia
NCI-H522 lung = test system: NCI-H522 lung
A498 renal = test system: A498 renal
RXF 393 renal = test system: RXF 393 renal
SK-MEL-28 melanoma = test system: SK-MEL-28 melanoma
HL-60(TB) leukemia = test system: HL-60(TB) leukemia
SR leukemia = test system: SR leukemia
SW-620 colon = test system: SW-620 colon
OVCAR-4 ovarian = test system: OVCAR-4 ovarian
COLO 205 colon = test system: COLO 205 colon
ACHN renal = test system: ACHN renal
OVCAR-8 ovarian = test system: OVCAR-8 ovarian
RPMI-8226 leukemia = test system: RPMI-8226 leukemia
SK-OV-3 ovarian = test system: SK-OV-3 ovarian
HS 578T breast = test system: HS 578T breast
UACC-257 melanoma = test system: UACC-257 melanoma
DU-145 prostate = test system: DU-145 prostate
HOP-62 NSCLC = test system: HOP-62 NSCLC
NCI-H23 lung = test system: NCI-H23 lung
NCI-H226 lung = test system: NCI-H226 lung
HOP-92 NSCLC = test system: HOP-92 NSCLC
SNB-19 CNS = test system: SNB-19 CNS
HCT-15 colon = test system: HCT-15 colon
LOX IMVI melanoma = test system: LOX IMVI melanoma
SF-268 CNS = test system: SF-268 CNS
UO-31 renal = test system: UO-31 renal
UACC-62 melanoma = test system: UACC-62 melanoma
MALME-3M melanoma = test system: MALME-3M melanoma
CCRF-CEM leukemia = test system: CCRF-CEM leukemia
OVCAR-5 ovarian = test system: OVCAR-5 ovarian

Measured: TGI

N#Cc1ccc(Oc2nc3ccccc3nc2C(=O)O)cc1
> 100 µM: all assays above
